# Measured values from patent US20240139236A1, “COPPER HISTIDINATE COMPOSITIONS AND USES THEREOF” (Cyprium Therapeutics, Inc., priority 2021, published 2024).
# Experiments:
# [1] = tested on: classic Menkes disease patients; assay: Subcutaneous copper histidinate treatment of Menkes patients (serum copper, renal safety monitoring); type: in vivo, human; conditions: 1450 μg SC BID younger than 12 months, QD older than 12 months
# Text: The purpose of this study was to allow currently enrolled participants to complete a three-year course of subcutaneous copper histidinate treatment under a previous protocol. It was hypothesized that subcutaneous injections of this drug will raise serum copper levels and ceruloplasmin levels in enrolled participants, improve neurodevelopmental and neurological outcomes, and reduce mortality compared to untreated affected subjects. The broad overall hypothesis of this treatment study is that subcutaneous copper histidinate injections will normalize circulating copper levels and provide health benefits to individuals with copper deficiency due to genetic abnormalities such as classic Menkes disease or which is unexplained. The trial represents an open-label design in which all enrolled subjects receive subcutaneous injections of copper histidinate. Immediate potential benefits of Copper Histidinate treatment in classic Menkes disease include protection against seizure activity and accrual of neurodevelopmental skills in an age-appropriate fashion. Long-term potential benefits include enhanced lifespan and quality of life, as noted in other subjects with classic Menkes disease treated with Copper Histidinate. […]
# [2] = tested on: classic Menkes disease patients; conditions: cited from earlier work
# Menkes disease subjects = assay: Long term follow up of Menkes disease patients treated with copper histidinate (survival); type: in vivo, human; conditions: early treatment vs untreated historical controls
# Method: During the study patients were administered does of copper histidinate as follows: 1450 μg subcutaneous BID in infants up to 12 months of age, and 1450 μg subcutaneous QD for infants and children older than 12 months.
# This study was designed as a long term follow up on patients previously identified and/or enrolled in previous studies for the treatment of Menkes disease with copper histidinate and untreated patients to determine survival, neurological development, quality of life status and adverse events. This study followed the patients from the previous examples for long term follow up.
# Patients previously enrolled in clinical trials for the treatment of Menkes disease with copper histidinate were assessed for survival status, neurological development status and quality of life. No drug was be administered during this study.
structure (smiles),measurement,setting,value
"N[C@@H](Cc1cnc[nH]1)C(=O)[O-].N[C@@H](Cc1cnc[nH]1)C(=O)[O-].[Cu+2] [copper histidinate, (2S)-2-amino-3-(1H-imidazol-5-yl) propanoic acid, Copper]",serum copper levels under the standard dosing regimen,[1],maintains serum copper levels in the normal range
same,renal tubular injury caused by copper histidinate,[2],reversible
same,reduction in the risk of death,Menkes disease subjects,~80%
same,hazard ratio (risk of death),Menkes disease subjects; p<0.00001,0.21
